# Test results as given in publication PMC12283027, “Development of Potent and Selective RIPK1 Degraders Targeting Its Nonenzymatic Function for Cancer Treatment” (Journal of Medicinal Chemistry, 2025).
# Biological target: T1, Receptor-interacting protein kinase 1 (RIPK1) (Homo sapiens, UniProt Q13546)
# T1 construct: with VHL
# Test: cell-based
# Parameters: HiBiT luminescence of CRISPR-tagged endogenous RIPK1 (C-terminal HiBiT) after PROTAC treatment; degradation DC50 and Dmax
# Conditions: HEK293T-RIPK1-HiBiT cells; read-out: Dmax (HEK293T-RIPK1-HiBiT cell line)
# Procedure: Screening of RIPK1 Degraders Using HEK-293T-RIPK1-HiBiT cells  3 Primary screening RIPK1 degraders using HEK293T-RIPK1-HiBiT cell line. Cells were seeded in 96-well plates and treated with test compounds for 20 h. After treatment, Bioluminescence signal reflecting RIPK1 protein level was generated by adding Nano-Glo HiBiT detect reagent. A) Bioluminescence signal was visualized using Bio-Rad ChemiDoc MP Imaging system. The grayscale intensity is positively correlated with protein abundance. B) Relative luminescence Units (RLUs) in each well was measured using CLARIOstar plate reader. DC50 values were calculated by nonlinear regression analysis in GraphPad Prism software. DC50 = dose that reduces RIPK1 protein by 50%. D max = maximum reduction of RIPK1 protein achieved by the compound. Guide RNA oligos for RIPK1 (foward: CACCGA-GCCCAT-CCAGGG-TTAGTTC. reverse: AAACGA-ACTAAC-CCTGGA-TGGGCTC) were cloned into Cas9 expression plasmid (pSpCas9–2A-GFP purchased from Addgene), and cotransfected with donor DNA oligo using FuGENE HD Transfection Reagent (Promega). GFP positive cells were FACS sorted and single clones were screened for HiBiT signal by Nano Glo HiBiT Lytic Detection System (Promega).
# T1 sequence (Q13546 whole entry): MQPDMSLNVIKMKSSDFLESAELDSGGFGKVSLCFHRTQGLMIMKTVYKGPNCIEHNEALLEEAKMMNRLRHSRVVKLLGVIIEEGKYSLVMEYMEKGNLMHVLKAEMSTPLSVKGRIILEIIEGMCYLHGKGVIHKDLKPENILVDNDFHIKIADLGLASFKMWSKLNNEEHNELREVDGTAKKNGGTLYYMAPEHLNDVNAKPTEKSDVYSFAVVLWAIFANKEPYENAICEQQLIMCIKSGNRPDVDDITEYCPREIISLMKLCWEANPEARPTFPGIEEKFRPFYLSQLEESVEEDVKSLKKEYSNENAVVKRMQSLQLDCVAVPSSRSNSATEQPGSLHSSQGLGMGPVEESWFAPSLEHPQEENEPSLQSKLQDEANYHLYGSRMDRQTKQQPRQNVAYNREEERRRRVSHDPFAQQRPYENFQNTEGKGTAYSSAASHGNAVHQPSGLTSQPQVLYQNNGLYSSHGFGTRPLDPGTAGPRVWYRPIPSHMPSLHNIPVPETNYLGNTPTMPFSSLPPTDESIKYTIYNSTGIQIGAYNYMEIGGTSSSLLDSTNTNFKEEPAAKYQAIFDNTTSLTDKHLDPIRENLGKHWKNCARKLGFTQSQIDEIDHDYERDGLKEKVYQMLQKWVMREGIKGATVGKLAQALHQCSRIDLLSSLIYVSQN
# T1 sequence (P40337 whole entry partner): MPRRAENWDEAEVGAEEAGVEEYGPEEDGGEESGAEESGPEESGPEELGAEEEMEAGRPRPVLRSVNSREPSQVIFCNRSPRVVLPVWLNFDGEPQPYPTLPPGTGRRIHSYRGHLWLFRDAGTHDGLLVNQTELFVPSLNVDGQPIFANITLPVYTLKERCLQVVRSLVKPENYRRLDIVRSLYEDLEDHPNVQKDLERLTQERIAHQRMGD
row,Structure (SMILES),Dmax [%]
1,Cc1ncsc1-c1ccc([C@H](C)NC(=O)[C@@H]2C[C@@H](O)CN2C(=O)[C@@H](NC(=O)CN2CCN(C3CCN(C(=O)Cn4cc(-c5cnc(N)c6c(-c7ccc8c(c7)CCN8C(=O)Cc7ccccc7)csc56)cn4)CC3)CC2)C(C)(C)C)cc1 [225-2],91
2,Cc1ncsc1-c1ccc([C@H](C)NC(=O)[C@@H]2C[C@@H](O)CN2C(=O)[C@@H](NC(=O)CN2CCN(C(=O)Cn3cc(-c4cnc(N)c5c(-c6ccc7c(c6)CCN7C(=O)Cc6ccccc6)csc45)cn3)CC2)C(C)(C)C)cc1 [225-3],87
3,Cc1ncsc1-c1ccc([C@H](C)NC(=O)[C@@H]2C[C@@H](O)CN2C(=O)[C@@H](NC(=O)CN2CCN(CC3CCN(C(=O)Cn4cc(-c5cnc(N)c6c(-c7ccc8c(c7)CCN8C(=O)Cc7ccccc7)csc56)cn4)CC3)CC2)C(C)(C)C)cc1 [225-4],93
4,"Cc1ncsc1-c1ccc([C@H](C)NC(=O)[C@@H]2C[C@@H](O)CN2C(=O)[C@@H](NC(=O)CN2CCN(CC3CCN(CC4CCN(C(=O)Cn5cc(-c6cnc(N)c7c(-c8ccc9c(c8)CCN9C(=O)Cc8ccccc8)csc67)cn5)CC4)CC3)CC2)C(C)(C)C)cc1 [225-5, (2S,4R)-1-((S)-2-(2-(4-((1-((1-(2-(4-(4-Amino-3-(1-(2-phenylacetyl)indolin-5-yl)thieno[3,2-c]pyridin-7-yl)-1H-pyrazol-1-yl)acetyl)piperidin-4-yl)methyl)piperidin-4-yl)methyl)piperazin-1-yl)acetamido)-3,3-dimethylbutanoyl)-4-hydroxy-N-((S)-1-(4-(4-methylthiazol-5-yl)phenyl)ethyl)pyrrolidine-2-carboxamide]",93
5,Cc1ncsc1-c1ccc([C@H](C)NC(=O)[C@@H]2C[C@@H](O)CN2C(=O)[C@@H](NC(=O)C2CCN(CCNC(=O)Cn3cc(-c4cnc(N)c5c(-c6ccc7c(c6)CCN7C(=O)Cc6ccccc6)csc45)cn3)CC2)C(C)(C)C)cc1 [225-6],34
6,Cc1ncsc1-c1ccc([C@H](C)NC(=O)[C@@H]2C[C@@H](O)CN2C(=O)[C@@H](NC(=O)C2CCN(CCCNC(=O)Cn3cc(-c4cnc(N)c5c(-c6ccc7c(c6)CCN7C(=O)Cc6ccccc6)csc45)cn3)CC2)C(C)(C)C)cc1 [225-7],22

# The remaining lines, values ahead:
row,Dmax [%],Structure (SMILES)
1,58,Cc1ncsc1-c1ccc([C@H](C)NC(=O)[C@@H]2C[C@@H](O)CN2C(=O)[C@@H](NC(=O)CCCCCN2CCN(C(=O)Cn3cc(-c4cnc(N)c5c(-c6ccc7c(c6)CCN7C(=O)Cc6ccccc6)csc45)cn3)CC2)C(C)(C)C)cc1 [229-1]
2,9,Cc1ncsc1-c1ccc([C@H](C)NC(=O)[C@@H]2C[C@@H](O)CN2C(=O)[C@@H](NC(=O)CCCCNC2CCN(C(=O)Cn3cc(-c4cnc(N)c5c(-c6ccc7c(c6)CCN7C(=O)Cc6ccccc6)csc45)cn3)CC2)C(C)(C)C)cc1 [229-2]
3,5,Cc1ncsc1-c1ccc([C@H](C)NC(=O)[C@@H]2C[C@@H](O)CN2C(=O)[C@@H](NC(=O)CCN2CCN(C(=O)CNC(=O)Cn3cc(-c4cnc(N)c5c(-c6ccc7c(c6)CCN7C(=O)Cc6ccccc6)csc45)cn3)CC2)C(C)(C)C)cc1 [229-3]
4,25,Cc1ncsc1-c1ccc([C@H](C)NC(=O)[C@@H]2C[C@@H](O)CN2C(=O)[C@@H](NC(=O)CCN2CCN(CCNC(=O)Cn3cc(-c4cnc(N)c5c(-c6ccc7c(c6)CCN7C(=O)Cc6ccccc6)csc45)cn3)CC2)C(C)(C)C)cc1 [229-4]
